# Results from patent US20260374739A1, “SMALL MOLECULAR WEIGHT CHEMICAL COMPOUND TO ANTAGONIZE EPH-EPHRIN TETRAMERIZATION AND INHIBIT BIDIRECTIONAL SIGNALING” (THE BOARD OF REGENTS OF THE UNIVERSITY OF TEXAS SYSTEM, priority 2022, published 2026).
# Read-outs that look alike come from different tables or passages of the source.
# Tests used:
# EphB1-EphrinB2 = target: T1, EphB1-EphrinB2 (Rattus norvegicus, UniProt P09759); test: shortened association (80 sec) Octet, immobilized rat EphB1-Fc binding to 100 nM mEB2-His; set-up: species or system mouse EphrinB2; details: for Kd: 1:1 fit, read-out: KD of EphB1-EB2; for increase in rate of dissociation (Kdis) / lower affinity of EphB1-EB2 / tetramer accumulation slope: role: inhibitor
# T1 construct: rat EphB1-Fc residues 18-538; mouse EB2-His residues 18-232; purchased R&D Systems (EphB1-Fc); Sino Biologicals (EB2-His)
# T1 sequence (P09759 18-538): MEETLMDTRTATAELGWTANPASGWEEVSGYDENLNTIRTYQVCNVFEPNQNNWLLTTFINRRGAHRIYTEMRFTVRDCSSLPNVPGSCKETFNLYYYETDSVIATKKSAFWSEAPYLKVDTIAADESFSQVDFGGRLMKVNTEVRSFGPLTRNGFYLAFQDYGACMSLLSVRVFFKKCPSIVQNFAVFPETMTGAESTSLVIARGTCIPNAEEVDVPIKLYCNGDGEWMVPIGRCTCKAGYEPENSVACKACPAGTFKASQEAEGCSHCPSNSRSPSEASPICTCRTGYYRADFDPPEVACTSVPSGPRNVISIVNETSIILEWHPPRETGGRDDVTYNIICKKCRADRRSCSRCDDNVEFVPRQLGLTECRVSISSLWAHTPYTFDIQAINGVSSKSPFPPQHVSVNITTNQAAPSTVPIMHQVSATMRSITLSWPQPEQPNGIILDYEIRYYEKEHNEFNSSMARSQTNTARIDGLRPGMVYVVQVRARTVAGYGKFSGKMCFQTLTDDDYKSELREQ
# Experimental: In the above disclosed Octet interaction studies using human proteins the association and dissociation times were doubled to 800 and 1,000 sec, respectively, resulting in a greater accumulation of the super-stable surmountable and extra-super-stable unsurmountable forms of the Eph-Ephrin tetramers. To better assess early binding activities in the absence of A20, biophysical studies were conducted in which the association times were shortened to 80, 40, 20, 15, 10, and 5 sec, followed by a standard 500 sec dissociation, and where biosensor immobilized rEphB1-Fc ectodomain was exposed to 100 nM soluble mEB2-His. Focusing first on the run with 80 sec association step and for illustrative purpose (FIG. 23), the biosensor response indicates the expected rapid formation of EphB1-EB2 dimers with extremely high 87° slope for the first 10-15 sec of the association, which then quickly bends again as expected this time to a −60° slope as tetramers begin to accumulate. […] The dissociation response then quickly bent to level off and plateau at a signal much higher than baseline to represent the species of stable EphB1-EB2 tetramers that remained complexed throughout the remaining dissociation step.
# To assess how A20 chemicals alter early binding activities, 80 sec Octet runs were then conducted using 0, 10, and 100 μM concentrations of the A20 salt compound (FIG. 25A 25B). In the absence of A20, the association response of immobilized EphB1 binding to soluble EB2 is typical to that shown in FIG. 24 and indicates rapid early formation of dimers with very high 87° slope that quickly bends to the tetramerization accumulation slope of −60°, and then once in the dissociation step the slope abruptly reverses to show fast-off of the dimer species with a signal that then leveled off in this experiment at 67% of the maximum response and represents accumulation of the stable tetramers. In runs containing A20, even though there was no effect on the early and fast formation of dimers during the 80 sec association step, there was a clear and very strong dose-dependent reduction in accumulation of the tetramer.
# This can be especially seen in the analysis of the kinetic data where the parameters were set to calculate information based off of a 1:1 interaction (FIG. 25C). […] This increased rate of dissociation reflects the near absence in formation of stable tetramers and provides a fairly accurate representation of the Kdis that is specifically attributed to the fast-off melting of dimers. Summarizing these biophysical studies, in the presence of A20 only the fast-on/fast-off dimers form and are visualized in the association step, quickly reaching a homeostasis level of dimers forming and melting in equilibrium (fast-on/fast-off), and not being able to associate into tetramers. Then, when placed into the dissociation step, all the existing dimers quickly melt off leaving behind the few tetramers that were able to form. […] Based on the results, it is concluded that A20 chemicals can be classified as specific/select inhibitors of Eph-Ephrin tetramerization.
# [1] = system: CFA-induced mechanical pain in mice; test: CFA inflammatory pain, mechanical; type: in vivo, mouse; details: IP or PO 20 mg/kg
# Experimental: The week prior to injection of CFA, adult mice (>10 weeks age, male or female) were first acclimated to the chambers used in pain assessments and then their left and right hind paws were subjected to thermal (heat) and mechanical (touch) pain measurements to obtain baseline data. Mechanical pain was assessed by placing mice on a wire grid and repeatably testing hind paws for their sensitivity to von Frey (VF) filaments of different stiffnesses with the mechanical withdrawal threshold for each mouse hind paw defined as the minimum gauge filament needed to elicit a reflex. Thermal pain was assessed by placing mice on a glass surface and subjecting their hind paws to an infrared heat source (Hargreaves device) that is connected to a timer to measure how long the animal takes to notice the heat and lift the paw. In these tests, both hind paws of mice were subjected to multiple measurements over a 2-3 hr period to (1) either narrow down the VF filament stiffness threshold to plot the touch pain or (2) to obtain six good thermal response measurements which are averaged to provide the data points for heat pain. […] A total of 12 mice were assessed in any one experiment. […]
structure (smiles),measurement,setting,value
"Oc1c(Br)cc(CN2CCOCC2)c2cccnc12 [Compound 5, 7-bromo-5-(morpholinomethyl)quinolin-8-ol]",Kd,EphB1-EphrinB2; in presence of 10 μM A20,10.5 nM
same,Kd,EphB1-EphrinB2; in presence of 100 μM A20,46.2 nM
same,increase in rate of dissociation (Kdis),EphB1-EphrinB2; 10 μM A20,90 fold
same,lower affinity of EphB1-EB2,EphB1-EphrinB2; 10 μM A20,76 fold
same,tetramer accumulation slope,"EphB1-EphrinB2; 10 μM A20, 60° without",16 °
same,increase in rate of dissociation (Kdis),EphB1-EphrinB2; 100 μM A20,275 fold
same,lower affinity of EphB1-EB2,EphB1-EphrinB2; 100 μM A20,337 fold
same,tetramer accumulation slope,EphB1-EphrinB2; 100 μM A20,flat line with no slope
same,mechanical pain,[1],no increased sensitivity to the VF filaments on average
same,mechanical pain ratio,[1]; vehicle 2-3,1
